Assay results reported in ChEMBL document CHEMBL1132788, “Analogues and derivatives of ciproxifan, a novel prototype for generating potent histamine H3-receptor antagonists” (Bioorg Med Chem Lett, 2000).

Legend:
Histamine H3 receptor = Histamine H3 receptor (Rattus norvegicus, UniProt Q9QYN8); test: In vitro inhibitory activity against Histamine H3 receptor for K+ evoked depolarization-induced release of [3H]histamine from synaptosomes of rat cerebral cortex; type: subcellular, Brain
[1] = target: Histamine H3 receptor (Mus musculus) (UniProt P58406); test: In vivo Histamine H3 receptor antagonism, dose required to increase in N-t-methylhistamine levels in Swiss mice brains 90 min after p.o. administration; type: functional, organism-based; conditions: Brain
Histamine H3 receptor (Mus musculus), sequence (P58406 whole entry): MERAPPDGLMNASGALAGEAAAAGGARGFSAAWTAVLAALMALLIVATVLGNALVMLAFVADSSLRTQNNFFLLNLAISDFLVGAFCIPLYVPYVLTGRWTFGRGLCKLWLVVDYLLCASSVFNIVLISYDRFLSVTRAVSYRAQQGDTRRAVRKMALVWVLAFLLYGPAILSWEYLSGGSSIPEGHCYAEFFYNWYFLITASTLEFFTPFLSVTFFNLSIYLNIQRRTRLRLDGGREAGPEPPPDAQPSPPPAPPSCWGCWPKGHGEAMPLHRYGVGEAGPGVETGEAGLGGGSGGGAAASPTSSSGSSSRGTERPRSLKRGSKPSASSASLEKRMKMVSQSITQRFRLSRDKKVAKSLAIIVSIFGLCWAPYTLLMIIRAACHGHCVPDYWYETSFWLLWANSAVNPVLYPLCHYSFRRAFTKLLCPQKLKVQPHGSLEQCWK

Histamine H3 receptor, sequence (Q9QYN8 whole entry): as the sequence (P58406 whole entry) above, with A15T, T286A, G290A, H387R, V389I counted along it

| Structure (SMILES) | Ki (Histamine H3 receptor) [nM] | ED50 [1] [mg/kg] |
| --- | --- | --- |
| O=C(CCCO)c1ccc(OCCCc2cnc[nH]2)cc1 | 30 |  |
| CC(C)(C)CCC#C[C@@H]1C[C@H]1c1c[nH]cn1 |  | 0.12 |
| O/N=C(/c1ccc(OCCCc2c[nH]cn2)cc1)C1CC1 |  | 0.21 |
| O=C(c1ccc(OCc2c[nH]cn2)cc1)C1CC1 | > 500 | 2.8 |
| O=C(c1ccc(OCCc2c[nH]cn2)cc1)C1CC1 | 2.1 | 0.21 |
| O=C(c1ccc(OCCCc2c[nH]cn2)cc1)C1CC1 |  | 0.14 |
| OC(c1ccc(OCCCc2c[nH]cn2)cc1)C1CC1 (stereo not given) | 0.58 | 0.18 |
| O=C(CCCO)c1ccc(OCCCc2c[nH]cn2)cc1 |  | > 10 |
| O=C(CCCN1CCCC1)c1ccc(OCCCc2c[nH]cn2)cc1 |  | > 10 |

Continued, values first:

| Ki (Histamine H3 receptor) [nM] | ED50 [1] [mg/kg] | Structure (SMILES) |
| --- | --- | --- |
|  | > 10 | O=C(c1ccc(OCCCCc2c[nH]cn2)cc1)C1CC1 |
| 60 |  | CCCCc1ccc(OCCCc2cnc[nH]2)cc1 |
|  | > 10 | c1nc(CCCOc2ccc(CC3CC3)cc2)c[nH]1 |
|  | 0.96 | CCCCc1ccc(OCCCc2c[nH]cn2)cc1 |
| 113 |  | O=C(c1ccc(OCCCCc2cnc[nH]2)cc1)C1CC1 |
|  | 0.72 | ClCC/C=C/c1ccc(OCCCc2c[nH]cn2)cc1 |
| 40 | > 10 | OCCCC1(c2ccc(OCCCc3c[nH]cn3)cc2)OCCO1 |
